Assay results reported in ChEMBL document CHEMBL1944508, “Identification of triazolopyridazinones as potent p38α inhibitors” (Bioorg Med Chem Lett, 2012).

Legend:
Type in all cases: ADME, organism-based
[1] = Clearance in rat; conditions: in vivo
[2] = AUC (0 to infinity) in Sprague-Dawley rat at 2 mg/kg, po; set-up: time infinity, dose 2 mg/kg, route oral; conditions: plasma
[3] = Oral bioavailability in Sprague-Dawley rat at 2 mg/kg; conditions: in vivo
[4] = Volume of distribution at steady state in Sprague-Dawley rat at 2 mg/kg, iv; set-up: dose 2 mg/kg, route intravenous; conditions: in vivo, read-out: Vdss
[5] = Clearance in Sprague-Dawley rat at 2 mg/kg, iv; set-up: dose 2 mg/kg, route intravenous; conditions: in vivo
[6] = Half life in Sprague-Dawley rat at 2 mg/kg, iv; set-up: dose 2 mg/kg, route intravenous; conditions: in vivo

Row | Structure (SMILES) | clearance [1] [mL/min/kg] | AUC(0-inf) [2] [ng·h/mL] | bioavailability [3] [%] | Vd [4] [L/kg] | clearance [5] [mL/min/kg] | half-life [6] [min]
1 | Cc1ccc(C(=O)NC2CC2)cc1-c1ccn2c(-c3c(F)cccc3F)nnc2c1 | 6.17 |  |  |  |  | 
2 | Cc1c(F)cc(C(=O)NC2CC2)cc1-c1cc2nnc(-c3c(F)cccc3Cl)n2n(C)c1=O |  | 3190 | 83 | 2.42 | 8.77 | 204

Other lines, results leading:

Row | clearance [1] [mL/min/kg] | AUC(0-inf) [2] [ng·h/mL] | bioavailability [3] [%] | Vd [4] [L/kg] | clearance [5] [mL/min/kg] | half-life [6] [min] | Structure (SMILES)
3 | 3.67 |  |  |  |  |  | Cc1ccc(C(=O)NC2CC2)cc1-c1cc2cnn(-c3c(F)cccc3F)c2n(C)c1=O
4 |  | 1420 | 55 | 2.54 | 13.1 | 166 | CCn1c(=O)c(-c2cc(C(=O)NC3CC3)ccc2C)cc2nnc(-c3c(F)cccc3Cl)n21
5 |  | 1370 | 42 | 2.7 | 11.4 | 166 | CCn1c(=O)c(-c2cc(C(=O)NC3CC3)cc(F)c2C)cc2nnc(-c3c(F)cccc3Cl)n21
